Laboratory results taken from PubChem BioAssay AID2060884 (Molecular Pharmacology Branch, DTP, NCI, 2025).

System: NCI-H929 complex spheroids, viability % test/control
Assay: Anticancer human tumor NCI-H929 cell line growth inhibition [RAS];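 further: compound exposure lasted seven days before viability was read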
Conditions: for viability, T/C: stronger effect = lower value
Excerpt: RAS pathway inhibitors in Combinations in Complex Spheroids
A high-throughput screen of multi-cell type tumor spheroids was designed to identify active combinations of RAS pathway inhibitors and targeted small molecules. Complex spheroids include a stromal component modeled by human endothelial cells (HUVEC) and fibroblasts modeled by human mesenchymal stem cells (MSCs). The concentration ranges selected for each drug and investigational agent were based upon clinically achievable concentrations if the clinical Cmax of the agent was known.
Compounds. The drugs and investigational agents: abemaciclib (NSC768073), cobimetinib (NSC768068), divarasib (GDC6063, NSC841802), docetaxel (NSC628503), GDC-1971 (RLY-1971, NSC841576), gemcitabine (NSC613327), inavolisib (NSC800729), ipatasertib (NSC767898), KB-0742 (NSC834161), MRTX-1133 (NSC836407), osimertinib (NSC779217), RMC-4630 (NSC839698), RMC-6236 (NSC851965), RMC-6291 (NSC852671), Ro-3306 (NSC812927), sapanisertib (NSC764658), SN-38 (NSC673596), staurosporine (NSC755774), SY5609 (NSC837396), and tovorafenib (DAY101, NSC766906), were obtained from the National Cancer Institute (NCI) Developmental Therapeutics Program Chemical Repository. The FDA-approved anticancer drug set is available from the NCI Developmental Therapeutics Program. […] The stock solutions were prepared in dimethyl sulfoxide (DMSO, Sigma-Aldrich, St. Louis, MO, cat. D2650) at 800-fold the tested concentration and stored at -70 degrees C prior to their use. All drugs and investigational agents were tested over a range starting from a high concentration at or near the clinical Cmax and decreasing in half-log increments. If the clinical Cmax for an agent had not been determined, the highest concentration tested was 10 microM.
Cell Culture. All cells were maintained in an incubator at 37 degrees C and 5% CO2 with 95% humidity. The PDC lines were cultured according to standard operating procedures established by the NCI PDMR. All PDCs were thawed and cultured in Matrigel-coated flasks prepared with a working solution of 1X Ham's F-12 nutrient mix, without supplementation (Invitrogen, Waltham, MA, cat. 11765054), 100 U/mL penicillin-streptomycin (Invitrogen, cat. 15140122), and 2.5% Matrigel (Corning Inc., Corning, NY, cat. 354248) for the first three passages. The 362531-283-R-J2-PDC and 782815-120-R-J1-PDC lines were cultured in 6C/Colon 1B media, which includes advanced DMEM/F-12 (Thermo Fisher Scientific, cat. 12634028), 10 mM HEPES (Thermo Fisher Scientific, cat. 15630080), 1X GlutaMAX supplement (Thermo Fisher Scientific, cat. 35050061), 0.1 mg/mL primocin (InvivoGen, San Diego, CA, cat. ant-pm-2), 10% defined fetal bovine serum, heat inactivated (HyClone Laboratories Inc., Logan, UT, cat. SH30070.03HI), 50% L-WRN conditioned media (ATCC, cat. CRL-3276), 1.25 mM N-Acetyl-L-cysteine (Sigma-Aldrich, cat. A9165), 10 mM nicotinamide (Sigma-Aldrich, cat. N0636), 1X B-27 supplement (Thermo Fisher Scientific, cat. 17504044), 1X N-2 supplement (Thermo Fisher Scientific, cat. 17502048), 50 ng/mL human EGF (Thermo Fisher Scientific, cat. PHG0311), and 10 microM Y-27632 dihydrochloride (Tocris Bioscience, cat. 1254). The K12877-001-R-J1-PDC line was cultured in 6I media, which includes all 6C/Colon 1B media plus 10 ng/mL human FGF-10 (PeproTech, cat. 100-26), 1 ng/mL human FGF-2 (PeproTech, cat. 100-18B), 1 µM prostaglandin E2 (Tocris Bioscience, cat. 2296), […] hydrocortisone (Sigma-Aldrich, cat. H4001), and […] bovine insulin (Sigma-Aldrich, cat. I6634). The K86415-001-R-J1-PDC line was cultured in 6D media, which includes all 6C/Colon 1B media components minus the L-WRN conditioned media. The 485176-168-R4-J1-PDC was cultured in PANC media, which includes all 6C/Colon 1B media plus 100 ng/mL human FGF-10 (PeproTech, cat. 100-26), 500 nM SB-431542 (Selleckchem, cat. S1067), and 10 nM gastrin (Tocris Bioscience, cat. 3006). […]

Question: How did the IC50 (curve of first compound, second compound 0.00316 µM) turn out when `CC(C)n1nc(-c2ccc3oc(N)nc3c2)c2c(N)ncnc21` + C=CC(=O)N1CCN(c2nc(OCC3CCCN3C)nc3c(F)c(-c4nc(N)cc(C)c4C(F)(F)F)c(Cl)cc23)C(C)C1 was run?
Answer: 63.2 nM

Question: And the IC50 (curve of first compound, second compound 0.01 µM)?
Answer: 64.7 nM

Question: What about the IC50 (curve of first compound, second compound 0.0316 µM) of the same compound?
Answer: 65 nM

Question: And the IC50 (curve of first compound, second compound 0.1 µM)?
Answer: 64.2 nM

Question: What about the IC50 (curve of first compound, second compound 0.316 µM) of the same compound?
Answer: 65.5 nM

Question: What about the IC50 (curve of first compound, second compound 1 µM) of the same compound?
Answer: 64.4 nM

Question: What about the viability, T/C (second compound 0.00316 µM, first compound 0.000316 µM) of the same compound?
Answer: 102%

Question: And the viability, T/C (second compound 0.00316 µM, first compound 0.001 µM)?
Answer: 104%

Question: What about the viability, T/C (second compound 0.00316 µM, first compound 0.00316 µM) of the same compound?
Answer: 112%

Question: And the viability, T/C (second compound 0.00316 µM, first compound 0.01 µM)?
Answer: 111%

Question: And the viability, T/C (second compound 0.00316 µM, first compound 0.0316 µM)?
Answer: 118%

Question: And the viability, T/C (second compound 0.00316 µM, first compound 0.1 µM)?
Answer: 10.6%

Question: What about the viability, T/C (second compound 0.01 µM, first compound 0.000316 µM) of the same compound?
Answer: 102%

Question: What about the viability, T/C (second compound 0.01 µM, first compound 0.001 µM) of the same compound?
Answer: 107%

Question: And the viability, T/C (second compound 0.01 µM, first compound 0.00316 µM)?
Answer: 109%

Question: And the viability, T/C (second compound 0.01 µM, first compound 0.01 µM)?
Answer: 114%

Question: What about the viability, T/C (second compound 0.01 µM, first compound 0.0316 µM) of the same compound?
Answer: 122%

Question: And the viability, T/C (second compound 0.01 µM, first compound 0.1 µM)?
Answer: 13%

Question: And the viability, T/C (second compound 0.0316 µM, first compound 0.000316 µM)?
Answer: 98.6%

Question: What about the viability, T/C (second compound 0.0316 µM, first compound 0.001 µM) of the same compound?
Answer: 106%

Question: What about the viability, T/C (second compound 0.0316 µM, first compound 0.00316 µM) of the same compound?
Answer: 112%

Question: And the viability, T/C (second compound 0.0316 µM, first compound 0.01 µM)?
Answer: 117%

Question: And the viability, T/C (second compound 0.0316 µM, first compound 0.0316 µM)?
Answer: 126%

Question: And the viability, T/C (second compound 0.0316 µM, first compound 0.1 µM)?
Answer: 12.9%

Question: What about the viability, T/C (second compound 0.1 µM, first compound 0.000316 µM) of the same compound?
Answer: 95.4%

Question: What about the viability, T/C (second compound 0.1 µM, first compound 0.001 µM) of the same compound?
Answer: 106%

Question: And the viability, T/C (second compound 0.1 µM, first compound 0.00316 µM)?
Answer: 115%

Question: What about the viability, T/C (second compound 0.1 µM, first compound 0.01 µM) of the same compound?
Answer: 117%

Question: And the viability, T/C (second compound 0.1 µM, first compound 0.0316 µM)?
Answer: 122%

Question: What about the viability, T/C (second compound 0.1 µM, first compound 0.1 µM) of the same compound?
Answer: 11.6%

Question: And the viability, T/C (second compound 0.316 µM, first compound 0.000316 µM)?
Answer: 107%

Question: And the viability, T/C (second compound 0.316 µM, first compound 0.001 µM)?
Answer: 111%

Question: What about the viability, T/C (second compound 0.316 µM, first compound 0.00316 µM) of the same compound?
Answer: 109%

Question: What about the viability, T/C (second compound 0.316 µM, first compound 0.01 µM) of the same compound?
Answer: 119%

Question: What about the viability, T/C (second compound 0.316 µM, first compound 0.0316 µM) of the same compound?
Answer: 120%

Question: And the viability, T/C (second compound 0.316 µM, first compound 0.1 µM)?
Answer: 13.3%

Question: What about the viability, T/C (second compound 1 µM, first compound 0.000316 µM) of the same compound?
Answer: 114%

Question: And the viability, T/C (second compound 1 µM, first compound 0.001 µM)?
Answer: 110%

Question: What about the viability, T/C (second compound 1 µM, first compound 0.00316 µM) of the same compound?
Answer: 112%

Question: What about the viability, T/C (second compound 1 µM, first compound 0.01 µM) of the same compound?
Answer: 117%

Question: And the viability, T/C (second compound 1 µM, first compound 0.0316 µM)?
Answer: 120%

Question: And the viability, T/C (second compound 1 µM, first compound 0.1 µM)?
Answer: 9.93%

Question: What does the source list for `CCn1c(-c2cc(N3CCN(C)CC3)cnc2C(C)OC)c2c3cc(ccc31)-c1csc(n1)CC(NC(=O)C1CC1C)C(=O)N1CCCC(N1)C(=O)OCC(C)(C)C2` (stereo not drawn)?
Answer: viability, T/C (compound 0.000949 µM): 102% [middle of 8 runs]; viability, T/C (compound 0.003 µM): 101% [middle of 8 runs]; viability, T/C (compound 0.00949 µM): 116% [middle of 8 runs]; viability, T/C (compound 0.0949 µM): 5.7% [middle of 8 runs]; viability, T/C (compound 0.3 µM): 3.64% [middle of 8 runs]; IC50 (compound alone, run of 08/26/2024): 31.5 nM [middle of 8 runs]
